Data set [1] deals with T1, C-C chemokine receptor type 1 (Homo sapiens, UniProt P32246).
T1 sequence (P32246 whole entry): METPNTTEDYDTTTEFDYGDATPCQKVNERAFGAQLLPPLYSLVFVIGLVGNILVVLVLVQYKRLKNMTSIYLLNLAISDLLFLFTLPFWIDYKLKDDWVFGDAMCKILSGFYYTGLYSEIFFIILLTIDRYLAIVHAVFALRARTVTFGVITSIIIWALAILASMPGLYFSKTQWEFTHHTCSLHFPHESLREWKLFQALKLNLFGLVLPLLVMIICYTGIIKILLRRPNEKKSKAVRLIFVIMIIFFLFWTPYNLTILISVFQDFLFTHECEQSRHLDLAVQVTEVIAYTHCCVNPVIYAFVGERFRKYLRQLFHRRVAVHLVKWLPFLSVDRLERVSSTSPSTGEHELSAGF
The data set is described as follows: Inhibition of CCL3 binding to C-C chemokine receptor type 1.

For another data set, the species on record is Homo sapiens. The settings on record: Liver, Microsome.
The nature of data set [2]: Plasma clearance of compound was determined in dog.
Data set [3] is described as follows: Elimination Half-life of compound was determined in dog. The settings on record: in vivo.
The nature of data set [4]: Oral bioavailability in monkey. The settings on record: cercopithecidae, in vivo.
A short description of data set [5]: Plasma clearance of compound was determined in monkey. The following applies: cercopithecidae.
Data set [6] in a line: Volume of distribution of compound was determined in monkey. The following applies: cercopithecidae, in vivo.
A short description of data set [7]: Volume of distribution of compound was determined in dog. The following applies: in vivo.
A short description of data set [8]: Aqueous solubility of compound was determined.

pIC50: −log10 of the molar value. ≈ marks a conversion by molar mass, not a printed value. Where only a bound is given, the exact number is not on record here.

Description for Homo sapiens: In vitro oxidative metabolic stability measured by the rate of drug consumption in human liver microsomes as intrinsic clearance values

As to `CC(C)(F)CC[C@H](C[C@H](O)[C@H](Cc1ccccc1)NC(=O)c1cnc2ccccc2n1)C(N)=O`, in [1], the pIC50 (usually the negative decadic logarithm of the IC50, by convention in mol/L) was 8.05.
In data set [1], `CC(C)(O)CCC(C[C@H](O)[C@H](Cc1ccccc1F)NC(=O)c1cnc2ccccc2n1)C(N)=O` (stereo partly specified) showed a pIC50 of 7.28. Further, the CL (mL.min-1.kg-1) in the data set filed under Homo sapiens was determined as 16.5.
The compound `NC(=O)C(C[C@H](O)[C@H](Cc1ccccc1)NC(=O)c1cnc2ccccc2n1)C1CCOCC1` (stereo partly specified) showed a pIC50 in data set [1] of 5.46.
As to `NC(=O)C(C[C@H](O)[C@H](Cc1ccccc1)NC(=O)c1cnc2ccccc2n1)C1(O)CCCCC1` (stereo partly specified), in data set [1], the pIC50 was 7.27. In the data set listed under Homo sapiens, this compound showed a CL (mL.min-1.kg-1) of 47.7.
Turning to `CC(C)(F)CCC(C[C@H](O)[C@H](Cc1ccccc1)NC(=O)c1cnc2ccccc2n1)C(=O)N1CCCC1` (stereo partly specified), the pIC50 in [1] is 5.63.
With `NC(=O)C(C[C@H](O)[C@H](Cc1ccccc1)NC(=O)c1cnc2ccccc2n1)C1CCCCC1` (stereo partly specified), in data set [1], the pIC50 is 8.10. Also, the CL (mL.min-1.kg-1) in the data set listed under Homo sapiens is 242.
For `NC(=O)C(C[C@H](O)[C@H](Cc1ccccc1)NC(=O)c1cnc2ccccc2n1)C1(O)CCC(F)(F)CC1` (stereo partly specified), in that order: 7.25 and 6.4.
Compound `CC(C)(O)CCC(C[C@H](O)[C@H](Cc1ccc(F)cc1)NC(=O)c1cnc2ccccc2n1)C(N)=O` (stereo partly specified) showed a pIC50 in [1] of less than 4.60.
In data set [1], `CC(C)(F)CCC(C[C@H](O)[C@H](Cc1ccccc1)NC(=O)c1cnc2ccccc2n1)C(=O)NN` (stereo partly specified) gave a pIC50 of 8.15. In the data set filed under Homo sapiens, this compound came in with a CL (mL.min-1.kg-1) of 32.7.
Compound `CC(C)(O)CC[C@H](C[C@H](O)[C@H](Cc1ccccc1)NC(=O)c1cnc2ccccc2n1)C(N)=O` showed a negative logarithm of the IC50 (pIC50) in [1] of 6.24. For the same compound, in the data set filed under Homo sapiens, the CL (mL.min-1.kg-1) was 4.9.
The compound `NC(=O)C(C[C@H](O)[C@H](Cc1ccccc1)NC(=O)c1cnc2ccccc2n1)C1CCC(F)(F)CC1` (stereo partly specified) showed a pIC50 in data set [1] of 7.70.
In data set [1], `CC(C)(F)CCC(C[C@H](O)[C@H](Cc1ccccc1)NC(=O)c1cnc2ccccc2n1)C(=O)NCc1ccccc1` (stereo partly specified) showed a pIC50 of 6.07.
Take `O=C(N[C@@H](Cc1ccccc1)[C@@H](O)CC(C(=O)NO)C1CCC(F)(F)CC1)c1cnc2ccccc2n1` (stereo partly specified): the results for the clearance in [2] and in data set [5] were 38 mL/min/kg and 33 mL/min/kg, respectively. For the same compound, in data set [3], the half-life (in general, how long it takes for the measured level to halve) was 30 min. Also, the bioavailability – broadly, the share of a dose that reaches the circulation, judged against a reference dose that is usually intravenous – in [4] is less than 1.1%. Besides, the Vd (commonly the apparent volume that relates the amount in the body to the concentration in plasma or blood) turned out to be 1.8 L/kg in [6] and 1.3 L/kg in data set [7]. The solubility (as a rule, the dissolved amount per volume that the medium holds) in data set [8] amounted to 12 µg/mL (≈ 23.4 µM). In data set [1], this compound showed a negative-log IC50 (pIC50) of 8.15. In addition, the CL (mL.min-1.kg-1) in the data set listed under Homo sapiens is 6.1.
For `CCNC(=O)C(CCC(C)(C)F)C[C@H](O)[C@H](Cc1ccccc1)NC(=O)c1cnc2ccccc2n1` (stereo partly specified), the negative logarithm of the IC50 (pIC50) in data set [1] is 7.12.
`CC(C)(F)CCC(C[C@H](O)[C@H](Cc1ccccc1)NC(=O)c1cnc2ccccc2n1)C(=O)NO` (stereo partly specified) gave a pIC50 in [1] of 7.57.
On to `CN1CCN(C(=O)C(CCC(C)(C)F)C[C@H](O)[C@H](Cc2ccccc2)NC(=O)c2cnc3ccccc3n2)CC1` (stereo partly specified), for which, in [1], the negative-log IC50 (pIC50) is 5.25. The same compound came in with a CL (mL.min-1.kg-1) in the data set listed under Homo sapiens of 647.

Source of the values: ChEMBL document CHEMBL1147552, “Novel CCR1 antagonists with improved metabolic stability” (Bioorg Med Chem Lett, 2004).
